Test results: patent publication US20100041089A1, “IMPROVED METHOD FOR DETECTING CHEMICAL […]” (priority 2006, published 2010)

Tested on: yeast genes (expressed mRNA)
Assay: DNA chip measurement of expressed mRNA of yeast genes after culture with a toxic chemical substance
Type: cell-based, Saccharomyces cerevisiae S288C
Outline: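 Fluorescence ratio, treated over untreated, read by chip scanner; ratio of two or more counted significant. Cells: S288C yeast, YPD, 25° C, chemical added at log phase for 2 h at growth-inhibiting, sublethal level. Cy3/Cy5-labeled cDNA from oligo-dT-purified mRNA.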

Structure (SMILES): N#Cc1c(Cl)c(Cl)c(Cl)c(C#N)c1Cl [(9), 2,4,5,6-Tetrachloro-1,3-benzenedicarbonitrile]
- The level of expressed mRNA in the presence of chemical substance/The level of expressed mRNA in the absence of chemical substance (yeast gene YAL034C, cultured two hours with substance): 3.0
- The level of expressed mRNA in the presence of chemical substance/The level of expressed mRNA in the absence of chemical substance (yeast gene YAL053W, cultured two hours with substance): 1.4
- The level of expressed mRNA in the presence of chemical substance/The level of expressed mRNA in the absence of chemical substance (yeast gene YAR027W, cultured two hours with substance): 2.3
- The level of expressed mRNA in the presence of chemical substance/The level of expressed mRNA in the absence of chemical substance (yeast gene YAR028W, cultured two hours with substance): 1.0
- The level of expressed mRNA in the presence of chemical substance/The level of expressed mRNA in the absence of chemical substance (yeast gene YBL048W, cultured two hours with substance): 7.2
- The level of expressed mRNA in the presence of chemical substance/The level of expressed mRNA in the absence of chemical substance (yeast gene YBL065W, cultured two hours with substance): 20.8
- The level of expressed mRNA in the presence of chemical substance/The level of expressed mRNA in the absence of chemical substance (yeast gene YBL075C (stress protein genes)): 60.3
- The level of expressed mRNA in the presence of chemical substance/The level of expressed mRNA in the absence of chemical substance (yeast gene YBL107C, cultured two hours with substance): 1.0
- The level of expressed mRNA in the presence of chemical substance/The level of expressed mRNA in the absence of chemical substance (yeast gene YBR008C (transport facilitation protein gene)): 54.6
- The level of expressed mRNA in the presence of chemical substance/The level of expressed mRNA in the absence of chemical substance (yeast gene YBR072W (stress protein genes)): 29.4
- The level of expressed mRNA in the presence of chemical substance/The level of expressed mRNA in the absence of chemical substance (yeast gene YBR096W, cultured two hours with the chemical substance): 1.2
- The level of expressed mRNA in the presence of chemical substance/The level of expressed mRNA in the absence of chemical substance (yeast gene YBR256C): 18.1
- The level of expressed mRNA in the presence of chemical substance/The level of expressed mRNA in the absence of chemical substance (yeast gene YCR082W, cultured two hours with substance): 4.3
- The level of expressed mRNA in the presence of chemical substance/The level of expressed mRNA in the absence of chemical substance (yeast gene YCR107W, cultured for two hours with substance): 196.6
- The level of expressed mRNA in the presence of chemical substance/The level of expressed mRNA in the absence of chemical substance (yeast gene YDL059C, DNA repair protein genes, cultured two hours with substance): 10.5
- The level of expressed mRNA in the presence of chemical substance/The level of expressed mRNA in the absence of chemical substance (yeast gene YDL072C, cultured two hours with substance): 1.1
- The level of expressed mRNA in the presence of chemical substance/The level of expressed mRNA in the absence of chemical substance (yeast gene YDL204W, cultured two hours with substance): 2.3
- The level of expressed mRNA in the presence of chemical substance/The level of expressed mRNA in the absence of chemical substance (yeast gene YDL218W, cultured two hours with substance): 72.5
- The level of expressed mRNA in the presence of chemical substance/The level of expressed mRNA in the absence of chemical substance (yeast gene YDL222C, cultured two hours with substance): 1.9
- The level of expressed mRNA in the presence of chemical substance/The level of expressed mRNA in the absence of chemical substance (yeast gene YDL234C, cultured two hours with substance): 4.6
- The level of expressed mRNA in the presence of chemical substance/The level of expressed mRNA in the absence of chemical substance (yeast gene YDL243C, cultured for two hours with substance): 64.2
- The level of expressed mRNA in the presence of chemical substance/The level of expressed mRNA in the absence of chemical substance (yeast gene YDR018C, cultured two hours with substance): 2.3
- The level of expressed mRNA in the presence of chemical substance/The level of expressed mRNA in the absence of chemical substance (yeast gene YDR031W, cultured two hours with substance): 1.1
- The level of expressed mRNA in the presence of chemical substance/The level of expressed mRNA in the absence of chemical substance (yeast gene YDR070C, cultured two hours with substance): 13.9
- The level of expressed mRNA in the presence of chemical substance/The level of expressed mRNA in the absence of chemical substance (yeast gene YDR194C, mitochondria-located protein gene, cultured two hours with substance): 2.8
- The level of expressed mRNA in the presence of chemical substance/The level of expressed mRNA in the absence of chemical substance (yeast gene YDR214W, cultured two hours with substance): 5.5
- The level of expressed mRNA in the presence of chemical substance/The level of expressed mRNA in the absence of chemical substance (yeast gene YDR253C): 14.8
- The level of expressed mRNA in the presence of chemical substance/The level of expressed mRNA in the absence of chemical substance (yeast gene YDR330W, cultured two hours with substance): 3.9
- The level of expressed mRNA in the presence of chemical substance/The level of expressed mRNA in the absence of chemical substance (yeast gene YDR340W, cultured two hours with substance): 1.4
- The level of expressed mRNA in the presence of chemical substance/The level of expressed mRNA in the absence of chemical substance (yeast gene YDR350C, cultured two hours with substance): 2.8
- The level of expressed mRNA in the presence of chemical substance/The level of expressed mRNA in the absence of chemical substance (yeast gene YDR374C, cultured two hours with substance): 10.4
- The level of expressed mRNA in the presence of chemical substance/The level of expressed mRNA in the absence of chemical substance (yeast gene YDR391C, cultured two hours with substance): 1.5
- The level of expressed mRNA in the presence of chemical substance/The level of expressed mRNA in the absence of chemical substance (yeast gene YDR411C, cultured two hours with substance): 0.7
- The level of expressed mRNA in the presence of chemical substance/The level of expressed mRNA in the absence of chemical substance (yeast gene YDR486C, cultured two hours with substance): 2.5
- The level of expressed mRNA in the presence of chemical substance/The level of expressed mRNA in the absence of chemical substance (yeast gene YDR494W, cultured two hours with substance): 1.2
- The level of expressed mRNA in the presence of chemical substance/The level of expressed mRNA in the absence of chemical substance (yeast gene YDR511W, cultured two hours with substance): 2.5
- The level of expressed mRNA in the presence of chemical substance/The level of expressed mRNA in the absence of chemical substance (yeast gene YDR513W): 4.6
- The level of expressed mRNA in the presence of chemical substance/The level of expressed mRNA in the absence of chemical substance (yeast gene YDR545W, cultured two hours with substance): 1.8
- The level of expressed mRNA in the presence of chemical substance/The level of expressed mRNA in the absence of chemical substance (yeast gene YEL001C, cultured two hours with substance): 2.0
- The level of expressed mRNA in the presence of chemical substance/The level of expressed mRNA in the absence of chemical substance (yeast gene YER004W, cultured two hours with substance): 4.5
- The level of expressed mRNA in the presence of chemical substance/The level of expressed mRNA in the absence of chemical substance (yeast gene YER035W, cultured two hours with substance): 1.2
- The level of expressed mRNA in the presence of chemical substance/The level of expressed mRNA in the absence of chemical substance (yeast gene YER038C, cultured two hours with substance): 0.7
- The level of expressed mRNA in the presence of chemical substance/The level of expressed mRNA in the absence of chemical substance (yeast gene YER079W, cultured two hours with substance): 5.3
- The level of expressed mRNA in the presence of chemical substance/The level of expressed mRNA in the absence of chemical substance (yeast gene YER096W, metabolism protein genes): 7.5
- The level of expressed mRNA in the presence of chemical substance/The level of expressed mRNA in the absence of chemical substance (yeast gene YER103W (stress protein genes)): 20.3
- The level of expressed mRNA in the presence of chemical substance/The level of expressed mRNA in the absence of chemical substance (yeast gene YER106W, cultured two hours with substance): 0.4
- The level of expressed mRNA in the presence of chemical substance/The level of expressed mRNA in the absence of chemical substance (yeast gene YER158C, cultured two hours with substance): 2.1
- The level of expressed mRNA in the presence of chemical substance/The level of expressed mRNA in the absence of chemical substance (yeast gene YER163C, cultured two hours with substance): 5.4
- The level of expressed mRNA in the presence of chemical substance/The level of expressed mRNA in the absence of chemical substance (yeast gene YER175C, cultured two hours with substance): 1.9
- The level of expressed mRNA in the presence of chemical substance/The level of expressed mRNA in the absence of chemical substance (yeast gene YFL006W, cultured two hours with substance): 3.2
